Patent US8912120B2, “Herbicidal compositions comprising 4-amino-3-chloro-5-fluoro-6-(4-chloro-2-fluoro-3-methoxyphenyl) pyridine-2-carboxylic acid or a derivative thereof and synthetic auxin herbicides” (Dow AgroSciences, LLC., priority 2012, dated 2014)
Counter-ions that a name gives are not always drawn. Like-named read-outs stand apart in the source and are kept apart here.

Tests used:
SOOSS = experiment: Example V: postemergence herbicidal activity of mixtures in forage crops, SOOSS; assay type: in vivo, Solidago L. spec. (goldenrod); details: alone, foliar, approximately 21 days
Description: (§1) Seeds or root cuttings of the desired test plant species were planted in Sun Gro MetroMix® 306 planting mixture, which typically has a pH of 6.0 to 6.8 and an organic matter content of about 30 percent, in plastic pots with a surface area of 126.6 square centimeters (cm^2). […] The plants were grown for 14-60 days in a greenhouse with an approximate 14 hour photoperiod which was maintained at approximately 28° C. during the day and 24° C. during the night.
(§2) Spray solutions of the second herbicide or experimental compound mixtures were prepared by adding the stock solutions to the appropriate amount of dilution solution to form 12 mL spray solution with active ingredients in two-way combinations.

SINAR = experiment: Example V: postemergence herbicidal activity of mixtures in forage crops, SINAR; assay type: in vivo, Sinapis arvensis (wild mustard); details: alone, foliar, approximately 21 days
Description: as §1, §2

CIRAR = experiment: Example V: postemergence herbicidal activity of mixtures in forage crops, CIRAR; assay type: in vivo, Cirsium arvense (Canada thistle); details: alone, foliar, approximately 21 days
Description: as §1, §2

TRFRE = experiment: Example V: postemergence herbicidal activity of mixtures in forage crops, TRFRE; assay type: in vivo, Trifolium repens (white clover); details: alone, 17.5 gae/ha, foliar, approximately 21 days
Description: as §1, §2

ECHOR = experiment: Example II: in-water applied herbicidal mixtures, transplanted paddy rice, ECHOR; assay type: in vivo, Echinochloa oryzoides (early watergrass); details: Echinochloa oryzoides, 504 h, read-out: Visual Weed Control (%) Obs, 21 DAA
Description: (§3) The prepared mud was dispensed in 365 mL aliquots into 16-ounce (oz.) non-perforated plastic pots with a surface area of 86.59 square centimeters (cm^2) leaving a headspace of 3 centimeters (cm) in each pot Mud was allowed to dry overnight prior to planting or transplanting. Rice seeds were planted in Sun Gro MetroMix® 306 planting mixture, which typically has a pH of 6.0 to 6.8 and an organic matter content of about 30 percent, in plastic plug trays. Seedlings at the second or third leaf stage of growth were transplanted into 840 mL of mud contained in 32-oz. non-perforated plastic pots with a surface area of 86.59 cm^2 4 days prior to herbicide application. […] Nutrients were added as Osmocote® (19:6:12, N:P:K^+ minor nutrients) at 2 g per 16-oz. pot and 4 g per 32-oz. pot.
(§4) Applications were made by injecting with a pipetter appropriate amounts of the application solutions, individually and sequentially, into the aqueous layer of the paddy. Control plants were treated in the same manner with the solvent blank. Applications were made so that all treated plant material received the same concentrations of acetone and crop oil concentrate.

SCPMA = experiment: Example II: in-water applied herbicidal mixtures, transplanted paddy rice, SCPMA; assay type: in vivo; details: 21 DAA
Description: as §3, §4

SIDSP = experiment: Example V: postemergence herbicidal activity of mixtures in forage crops, SIDSP; assay type: in vivo, Sida spinosa (prickly sida); details: alone, 50 gae/ha, foliar, approximately 21 days
Description: as §1, §2

CYPIR = experiment: Example I: postemergence foliar-applied herbicidal mixtures, direct seeded rice, CYPIR; assay type: in vivo, Cyperus iria (rice flatsedge)
Description: (§5) The soil matrix was contained in plastic pots with a volume of 1 quart and a surface area of 83.6 square centimeters (cm^2). […] The plants were grown for 8-22 days in a greenhouse with an approximate 14 h photoperiod which was maintained at about 29° C. during the day and 26° C. during the night. Nutrients (Peters Excel® 15-5-15 5-Ca 2-Mg and iron chelate) were applied in the irrigation solution as needed and water was added on a regular basis. Supplemental lighting was provided with overhead metal halide 1000-Watt lamps as necessary. The plants were employed for testing when they reached the first through fourth true leaf stage.
(§6) Treatments consisted of the acid or esters of 4-amino-3-chloro-5-fluoro-6-(4-chloro-2-fluoro-3-methoxy-phenyl)pyridine-2-carboxylic acid (Compound A), each formulated as an SC (suspension concentrate), and various herbicidal components alone and in combination. Forms of compound A were applied on an acid equivalent basis.
(§7) For treatments comprised of formulated compounds, measured amounts of compounds were placed individually in 25 mL glass vials and diluted in a volume of 1.25% (v/v) Agri-Dex® crop oil concentrated to obtain 12× stock solutions. […] Application solutions were prepared by adding an appropriate amount of each stock solution (e.g., 1 mL) and diluted to the appropriate final concentrations with the addition of 10 mL of an aqueous mixture of 1.25% (v/v) crop oil concentrate so that the final spray solutions contained 1.25+/−0.05% (v/v) crop oil concentrate.
(§8) All stock solutions and applications solutions were visually inspected for compound compatibility prior to application. Spray solutions were applied to the plant material with an overhead Mandel track sprayer equipped with a 8002E nozzles calibrated to deliver 187 L/ha over an application area of 0.503 m^2 at a spray height of 18 to 20 inches (46 to 50 cm) above average plant canopy height. Control plants were sprayed in the same manner with the solvent blank.
(§9) The treated plants and control plants were placed in a greenhouse as described above and watered by sub-irrigation to prevent wash-off of the test compounds. After approximately 3 weeks, the condition of the test plants as compared with that of the untreated plants was determined visually and scored on a scale of 0 to 100 percent where 0 corresponds to no injury or growth inhibition and 100 corresponds to complete kill.
(§10) Colby's equation was used to determine the herbicidal effects expected from the mixtures (Colby, S. R. 1967. Calculation of the synergistic and antagonistic response of herbicide combinations. Weeds 15:20-22).
(§11) The following equation was used to calculate the expected activity of mixtures containing two active ingredients, A and B: Expected=A+B−(A×B/100)
(§12) A=observed efficacy of active ingredient A at the same concentration as used in the mixture.
(§13) B=observed efficacy of active ingredient B at the same concentration as used in the mixture.

CASOB = experiment: Example V: postemergence herbicidal activity of mixtures in forage crops (greenhouse), CASOB; assay type: in vivo, Cassia obtusifolia (sicklepod); details: alone, 50 gae/ha, foliar, approximately 21 days
Description: as §1, §2

ECHCO = experiment: Example I: postemergence foliar-applied herbicidal mixtures, direct seeded rice, ECHCO
LEFCH = experiment: Example I: postemergence foliar-applied herbicidal mixtures, direct seeded rice, LEFCH; assay type: in vivo, Leptochloa chinensis (Chinese sprangletop)
Description: as §5, §6, §7, §8, §9, §10, §11, §12, §13

ECHCG = experiment: Example II: in-water applied herbicidal mixtures, transplanted paddy rice, ECHCG; assay type: in vivo, Echinochloa crus-galli (barnyardgrass); details: 21 DAA
Description: as §3, §4

Nc1cc(Cl)nc(C(=O)O)c1Cl [Aminopyralid TIPA salt, 4-amino-3,6-dichloropyridine-2-carboxylic acid compound with 1,1′,1″-nitrilotris[2-propanol], reference compound]
SOOSS Obs (observed value) (SOOSS; 17.5 gae/ha): 45% | SINAR Obs (observed value) (SINAR; 17.5 gae/ha): 25% | SINAR Obs (observed value) (SINAR; 35 gae/ha): 45% | CIRAR Obs (observed value) (CIRAR; 17.5 gae/ha): 45% | TRFRE Obs (observed value) (TRFRE): 35%

O=C(O)c1nc(Cl)ccc1Cl [Clopyralid MEA salt, 3,6-dichloro-2-pyridinecarboxylic acid with 2-aminoethanol, reference compound]
SOOSS Obs (observed value) (SOOSS; 35 gae/ha): 25% | CIRAR Obs (observed value) (CIRAR; 35 gae/ha): 75%

COc1c(Cl)ccc(Cl)c1C(=O)O [Dicamba DMA Salt, 3,6-dichloro-2-methoxybenzoic acid compound with N-methylmethanamine, reference compound]
SINAR Obs (observed value) (SINAR; 50 gae/ha): 65% | pest or weed control at 140 g/ha (ECHOR; 140 gae/ha): 10% | pest or weed control at 140 g/ha (ECHOR; 140 gai/ha): 10% | pest or weed control at 280 g/ha (ECHOR; 280 gae/ha): 15% | pest or weed control at 280 g/ha (ECHOR; 280 gai/ha): 15% | Visual Weed Control (%) Obs (SCPMA; 140 gae/ha): 0% | Visual Weed Control (%) Obs (SCPMA; 140 gai/ha): 0% | Visual Weed Control (%) Obs (SCPMA; 280 gae/ha): 0% | SIDSP Obs (observed value) (SIDSP): 25% | Visual Weed Control (%) - 20 DAA CYPIR Obs (CYPIR; 70 gae/ha): 0% | Visual Weed Control (%) - 20 DAA CYPIR Obs (CYPIR; 140 gae/ha): 0% | Visual Weed Control (%) - 20 DAA CYPIR Obs (CYPIR; 280 gae/ha): 35% | CASOB Obs (observed value) (CASOB): 20% | Visual Weed Control (%) - 20 DAA ECHCO Obs (ECHCO; 70 gae/ha): 0% | Visual Weed Control (%) - 20 DAA ECHCO Obs (ECHCO; 140 gae/ha): 0% | Visual Weed Control (%) - 20 DAA ECHCO Obs (ECHCO; 280 gae/ha): 0% | Visual Weed Control (%) - 20 DAA LEFCH Obs (LEFCH; 140 gae/ha): 0% | Visual Weed Control (%) - 20 DAA LEFCH Obs (LEFCH; 280 gae/ha): 0% | Visual Weed Control (%) Obs (ECHCG; 140 gae/ha): 0% | Visual Weed Control (%) Obs (ECHCG; 280 gae/ha): 10%
